Assay results taken from ChEMBL document CHEMBL1150100, “Bruceanols G and H cytotoxic quassinoids from Brucea antidysenterica” (1995).

Tests used:
Type in all cases: functional
Conditions in all cases: read-out: ED50 (the source's name)
COLO 205 = assay: Cytotoxicity against human COLO205 cells
SK-MEL-5 = assay: Cytotoxicity against human SK-MEL-5 cells
KB = assay: Cytotoxicity against human KB cells

**Q.** Which results are given for `COC(=O)[C@@]12OC[C@]34[C@H]([C@@H](O)[C@@H]1O)[C@@]1(C)[C@H](O)C(=O)C[C@@H](C)[C@@H]1C[C@H]3OC(=O)[C@H](OC(=O)/C=C(\C)C(C)(C)OC(C)=O)[C@@H]24` [BRUCEANOL G]?
**A.** EC50 (COLO 205): 440 nM; EC50 (SK-MEL-5): 4080 nM; EC50 (KB): 550 nM

**Q.** How did the EC50 (SK-MEL-5) turn out when `COC(=O)[C@@]12OC[C@]34[C@H]([C@@H](O)[C@@H]1O)[C@@]1(C)C(=O)[C@@H](O)C[C@@H](C)[C@@H]1C[C@H]3OC(=O)[C@H](OC(=O)/C=C(\C)C(C)C)[C@@H]24` [BRUCEANOL H] was run?
**A.** Its EC50 is 6370 nM.
